This passage reports EC50 results from patent publication US11492361B2, “Compounds useful in HIV therapy” (GlaxoSmithKline Intellectual Property Development Limited, priority 2018, dated 2022).

Structures are written as SMILES. Structures can show the parent of a compound that is named as a salt. Where two headings read alike, the source gives them in different places. Where only a bound is given, the exact number is not on record here.

For one assay, the system named is p100/p52. The assay is described as follows: p100/p52 Western blot (WB) assay. In kind it is cell-based, human. To be noted: Homo sapiens. As to the method: Cell cultures were set up to evaluate several SMACm compounds. Frozen PBMC cells from healthy donors were thawed and plated in 2 ml deepwell plates at 2×10^6 cells/ml. Serial dilutions of each compound was carried out as a 7 fold 1:6 dilution with the starting final dose of 1000 nM. Cells were then combined with compound and place at 37° for 24 hrs. The following day cells were pelleted and placed at −80 until lysis.
In preparation for cell lysis, the frozen cell pellets and an aliquot of NP40 Cell Lysis Buffer (Invitrogen, Part #FNN0021), as well as an aliquot of 10× Protease Inhibitor Cocktail (Sigma, Part #P-2714) are thawed on ice. Once thawed, the complete lysis buffer is prepared by adding 10% final volume PI cocktail to the NP40 buffer and then adding in sufficient volume of 0.1 M PMSF (Sigma, Part #93482) and 1 M DTT (Sigma, Part #43816) to create a final concentration of 1 mM each in the complete lysis buffer. Cell lysis is then carried out by resuspending each cell pellet in 30 μL per 10^6 cells then incubating on ice for 30 minutes with vigorous vortexing every 10 minutes. The lysed cells are then centrifuged at 13K RPM for 10 minutes at 4° C. in a refrigerated microcentrifuge. The supernatants (lysates) are then transferred into new microcentrifuge tubes and either stored at −80° or utilized immediately for protein concentration and Western blot analysis.
Protein concentration for each lysate is determined using a detergent compatible Bradford assay (Pierce, Part #23246) following the manufacturer's microplate instructions.
Capillary Western analysis were performed using the ProteinSimple Jess System. A total of 1 ug of cell lysate was prepared according to the provided protocol supplied by ProteinSimple. The primary antibody for p100/p52 (Cell, Signaling #3017) is diluted 1:10 for use in the Jess system. The 12-230 kDa Jess Seperation Module capillary cartridges Separation Module (SM-W004) is used in conjunction with the Anti-Rabbit Secondary NIR conjugate (043-819). The Separation module includes prefilled plates that the samples, primary and secondary antibodies, as well as protein normalization reagent and diluents are loaded onto to perform separation and detection. Once the assay has run, the data is then analyzed utilizing the Compass software provided by ProteinSimple.
Alternatively to capillary electrophoresis, traditional immunoblot assays were carried out, 10 μg of cell lysate was loaded per well into 4-20% Tris-Glycine SDS-PAGE gels. Protein from the SDS-PAGE gels were transferred to Turbo Midi PVDF Transfer Packs (BioRad) using the “Mixed MW” protocol for one Midi Format Gel (constant 2.5 A up to 25V, for 7 minutes) of the Trans-Blot Turbo Transfer System (Bio-Rad) with premade Trans-Blot per the manufacturer's instructions. After transfer, PVDF membranes were blocked in 5% bovine serum albumin (BSA) in 1×TBS (BioRad) with 0.1% Tween-20 for 1 hour at room temperature with gentle rocking. Primary antibodies were added and incubated overnight at 4° C. (anti-p100/p52, Cell Signaling Technology #3017, 1:1000; anti-Actin-HRP conjugate, Abcam #49900, 1:30,000). Following primary staining, the membrane washed three times with 1× Tris Buffered Saline (TBS)+0.1% TWEEN® 20 for 10 minutes each wash. After washing, the membrane was incubated in 5% BSA in 1×TBS+0.1% TWEEN® 20 with the appropriate secondary antibody for 2 hours at room temperature. Following secondary stain the membrane was washed twice for 10 minutes with 1×TBS+0.1% TWEEN® 20 followed by a 10-minute wash with 1×TBS. The membrane was then patted dry with filter paper and an image was captured of the undeveloped membrane on the ChemiDoc MP Imaging System using Image Lab software (BioRad). Sufficient ECL reagent (GE Healthcare) was used to cover the membrane and a series of images were taken starting with 0.001 second and doubling to tripling the exposure time until the luminescence from the developed membrane saturated the image. […]
A general note: Immunoblotting shows a protein as a band on a membrane.

Assay [1] concerns Jurkat HIV-luciferase clones. Briefly: Jurkat latency reversal assay. In kind it is cell-based. The settings on record: Homo sapiens, Jurkat. The method, boiled down:
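Three pooled Jurkat HIV-luciferase clones (C16, I15, N6; 5,000 cells/well, maintained with 500 nM EFV) exposed to 3-fold, 14-point titrations (10 μM to 2.1 pM, 0.5% DMSO) in duplicate for 48 h at 37 °C. Luciferase luminescence read; EC50 and maximal % activation versus vehicle from four-parameter logistic fit.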

In another assay the test system is NFKB2. Briefly: NFkB2 gene induction. It counts as cell-based, human. To be noted: Homo sapiens, CD4+ T, 24 h, read-out: NFkB2 gene induction EC50 (nM). The method, then:
5×10^5 normal donor CD4 T cells were treated for 24h with serial dilutions of compounds starting at 1.0 μM at 6 fold, 7 places. Total RNA was isolated using the RNEasy Mini kit (Qiagen) per the manufacturer's instructions. The following TaqMan primer probe sets were sourced from Applied Biosystems: Hs00174517_m1 (NFKB2) and Hs02800695 (HPRT1). TaqMan-based real-time PCR (Fast Virus 1-Step Master Mix, Applied Biosystems) was used to amplify host genes of interest. Gene expression was normalized to HPRT1 and comparative threshold cycle (CT) method (ΔΔCT) was used for relative fold change of gene expression as compared to untreated cells. The data was analyzed by QuantStudio3 Real-Time PCR System.

Where [2] appears, read: PBMC, 24 h, read-out: p100/p52 Western Blot (WB) EC50 (nM).
The mark [3] stands for this setting: Table 4 summary, read-out: Jurkat EC50.

In the case of `CN[C@@H](C)C(=O)N[C@H]1CCO[C@H]2CC(C)(C)C(C(=O)Nc3ccccc3SSc3ccccc3NC(=O)C3N4C(=O)[C@@H](NC(=O)[C@H](C)NC)CCO[C@H]4CC3(C)C)N2C1=O` (stereo partly shown) [Formula F, reference compound], the EC50 with p100/p52 (PBMC cells from healthy donors, 24 hrs, read-out: p100/p52 Western Blot (WB) EC50) was greater than 1000 nM; in assay [1] (48 h, Table 4 summary, read-out: Jurkat EC50), roughly 1000 nM. In the case of `CN[C@@H](C)C(=O)N[C@H]1CCS[C@H]2CC(C)(C)[C@@H](C(=O)N[C@H]3c4ccccc4C[C@H]3OCC#CC#CCO[C@@H]3Cc4ccccc4[C@@H]3NC(=O)[C@H]3N4C(=O)[C@@H](NC(=O)[C@H](C)NC)CCS[C@H]4CC3(C)C)N2C1=O` [compound 13, (4S,4′S,7S,7′S,9aS,9a′S)-N,N′-((1S,1′S,2R,2′R)-(hexa-2,4-diyne-1,6-diylbis(oxy))bis(2,3-dihydro-1H-indene-2,1-diyl))bis(8,8-dimethyl-4-((S)-2-(methylamino)propanamido)-5-oxooctahydropyrrolo[2,1-b][1,3]thiazepine-7-carboxamide) dihydrochloride], the EC50 in the assay with NFKB2 was determined as 73 nM; in the assay with p100/p52 (setting [2]) it was 12.6 nM; in assay [1] (48 h), 9.3 nM; in assay [1] (setting [3]) it was 9.3 nM. As for `CN[C@@H](C)C(=O)N[C@H]1CCS[C@H]2CC(C)(C)[C@@H](C(=O)N[C@H]3c4ccccc4C[C@H]3OCCCCCCO[C@@H]3Cc4ccccc4[C@@H]3NC(=O)[C@H]3N4C(=O)[C@@H](NC(=O)[C@H](C)NC)CCS[C@H]4CC3(C)C)N2C1=O` [compound 20, (4S,4′S,7S,7′S,9aS,9a′S)-N,N′-((1S,1′S,2R,2′R)-(hexane-1,6-diylbis(oxy))bis(2,3-dihydro-1H-indene-2,1-diyl))bis(8,8-dimethyl-4-((S)-2-(methylamino)propanamido)-5-oxooctahydropyrrolo[2,1-b][1,3]thiazepine-7-carboxamide)], the EC50 in the assay with NFKB2 is 75 nM; in the assay with p100/p52 (setting [2]) it was 3.1 nM; in assay [1] (48 h), 11.9 nM; in assay [1] (setting [3]), 11.9 nM.

Regarding `CN[C@@H](C)C(=O)N[C@H]1CCS[C@H]2CC(C)(C)[C@@H](C(=O)N[C@H]3c4ccccc4C[C@H]3OCCCCCCCCCCO[C@@H]3Cc4ccccc4[C@@H]3NC(=O)[C@H]3N4C(=O)[C@@H](NC(=O)[C@H](C)NC)CCS[C@H]4CC3(C)C)N2C1=O` [compound 57, (4S,4′S,7S,7′S,9aS,9a′S)-N,N′-((1S,1′S,2R,2′R)-(decane-1,10-diylbis(oxy))bis(2,3-dihydro-1H-indene-2,1-diyl))bis(8,8-dimethyl-4-((S)-2-(methylamino)propanamido)-5-oxooctahydropyrrolo[2,1-b][1,3]thiazepine-7-carboxamide) dihydrochloride], the EC50 in assay [1] (48 h) turned out to be 8.5 nM. Still for that read-out and setting: for `CN[C@@H](C)C(=O)N[C@H]1CCS[C@H]2CC(C)(C)[C@@H](C(=O)N[C@H](COCCCCCCCCOC[C@@H](NC(=O)[C@H]3N4C(=O)[C@@H](NC(=O)[C@H](C)NC)CCS[C@H]4CC3(C)C)c3ccccc3)c3ccccc3)N2C1=O` [compound 58, (4S,4′S,7S,7′S,9aS,9a′S)-N,N′-((1S,1′S)-(octane-1,8-diylbis(oxy))bis(1-phenylethane-2,1-diyl))bis(8,8-dimethyl-4-((S)-2-(methylamino)propanamido)-5-oxooctahydropyrrolo[2,1-b][1,3]thiazepine-7-carboxamide) dihydrochloride] the value was 4.5 nM; for `CN[C@@H](C)C(=O)N[C@H]1CCS[C@H]2CC(C)(C)[C@@H](C(=O)N[C@H](COCCCCCCCCCCOC[C@@H](NC(=O)[C@H]3N4C(=O)[C@@H](NC(=O)[C@H](C)NC)CCS[C@H]4CC3(C)C)c3ccccc3)c3ccccc3)N2C1=O` [compound 60, (4S,4′S,7S,7′S,9aS,9a′S)-N,N′-((1S,1′S)-(decane-1,10-diylbis(oxy))bis(1-phenylethane-2,1-diyl))bis(8,8-dimethyl-4-((S)-2-(methylamino)propanamido)-5-oxooctahydropyrrolo[2,1-b][1,3]thiazepine-7-carboxamide) dihydrochloride], 3.5 nM; for `CN[C@@H](C)C(=O)N[C@H]1CCS[C@H]2CC(C)(C)[C@@H](C(=O)N[C@H](COCCCCCCCCCCCCOC[C@@H](NC(=O)[C@H]3N4C(=O)[C@@H](NC(=O)[C@H](C)NC)CCS[C@H]4CC3(C)C)c3ccccc3)c3ccccc3)N2C1=O` [compound 61, (4S,4′S,7S,7′S,9aS,9a′S)-N,N′-((1S,1′S)-(dodecane-1,12-diylbis(oxy))bis(1-phenylethane-2,1-diyl))bis(8,8-dimethyl-4-((S)-2-(methylamino)propanamido)-5-oxooctahydropyrrolo[2,1-b][1,3]thiazepine-7-carboxamide)], 11.8 nM.

Take `CN[C@@H](C)C(=O)N[C@H]1CCS[C@H]2CC(C)(C)[C@@H](C(=O)N[C@H](COCc3ccc4cc(COC[C@@H](NC(=O)[C@H]5N6C(=O)[C@@H](NC(=O)[C@H](C)NC)CCS[C@H]6CC5(C)C)c5ccccc5)ccc4c3)c3ccccc3)N2C1=O` [compound 62, (4S,4′S,7S,7′S,9aS,9a′S)-N,N′-((1S,1′S)-((naphthalene-2,6-diylbis(methylene))bis(oxy))bis(1-phenylethane-2,1-diyl))bis(8,8-dimethyl-4-((S)-2-(methylamino)propanamido)-5-oxooctahydropyrrolo[2,1-b][1,3]thiazepine-7-carboxamide)]: in assay [1] (48 h), the EC50 is 4.2 nM. On the same count and under the same terms, for `CN[C@@H](C)C(=O)N[C@H]1CCS[C@H]2CC(C)(C)[C@@H](C(=O)N[C@H]3c4ccccc4C[C@H]3OCCCCCCCCO[C@@H]3Cc4ccccc4[C@@H]3NC(=O)[C@H]3N4C(=O)[C@@H](NC(=O)[C@H](C)NC)CCS[C@H]4CC3(C)C)N2C1=O` [compound 63, (4S,4′S,7S,7′S,9aS,9a′S)-N,N′-((1S,1′S,2R,2′R)-(octane-1,8-diylbis(oxy))bis(2,3-dihydro-1H-indene-2,1-diyl))bis(8,8-dimethyl-4-((S)-2-(methylamino)propanamido)-5-oxooctahydropyrrolo[2,1-b][1,3]thiazepine-7-carboxamide) dihydrochloride] the value was 11.6 nM.
